Series [1] has as its system colon cancer cells HML58-3. Description: Cell count by WST-8 method (cytotoxicity). Conditions: 10 μM of sample, cultured for 4 days, HML58-3 cells. The series is classed as cell-based. The text has this: (§1) Hattori et al.). In the evaluation system, a vector in which a secretory luciferase gene was ligated in the downstream of the endogenous promoter CpG island region was introduced into colon cancer cells. When inhibitions of DNA methyltransferase (DNMT) or other DNA methylation maintenance mechanism occur, C-methylation of the promoter CpG island decreases and secretory luciferase is expressed. Since the luciferase is secretory type, it is a screening system for DNMT inhibitory activity by which the assessment can be conducted easily by collecting cell supernatant and adding the substrate of luciferin. That is, on the day before the sample addition, colon cancer cells HML58-3 that had been genetically modified were seeded in a 96-well cell culture plate. 10 μM of each sample was added to each of them, and cultured for 4 days. On day 5, the cell supernatant was collected and luciferase activity was determined. In addition, cell account for each sample was determined according to WST-8 method.
In general terms: Tetrazolium assays rely on reduction of a dye to a coloured formazan, in cell work by metabolically active cells.

The nature of series [2]: Distribution coefficient log P (n-octanol/PBS). The series is classed as physicochemical. From the text: The separation systems of silica gel column, separation yields, data obtained from instrumental analysis and distribution coefficients of the compounds (A) to (E) which are 5′-position dibenzyl monophosphates of 5-azacytidines synthesized according to the above synthetic methods A or B are shown as below.

Series [3] concerns DNA methyltransferase (DNMT). Put plainly: Screening system for DNMT inhibitory activity (secretory luciferase reporter in HML58-3 cells). The series is classed as cell-based. Conditions: 10 μM of sample, cultured for 4 days, cell supernatant on day 5, HML58-3 cells.
Description: The screening system for assessment of DNMT inhibitory activity used for 5′-position dibenzyl monophosphate derivatives of 5-azacytidine and its 2′-deoxy form is the evaluation system which we have developed recently (Epigenetics, 2016, Dec 9:0: Establishment of a high-throughput detection system for DNA demethylating agents, E. Okochi-Takada, N. Hattori et al.). It is a simple screening system for assessment of DNMT inhibitory activity which uses genetically modified colorectal cancer cells, wherein […] luciferase can be expressed when 5-position methylation of cytosine ring in expressed gene promoter region is inhibited by inhibiting DNA methyltransferase (DNMT).
The screening system for assessment of DNMT inhibitory activity used for 5′-position dibenzyl monophosphate derivatives of 5-azacytidine and its 2′-deoxy form is the evaluation system which we have developed recently (Epigenetics, 2016, Dec 9:0: Establishment of a high-throughput detection system for DNA demethylating agents, E. Okochi-Takada, N.
as §1

Series [4] concerns HCT116 cell (human colon cancer). Description: Antitumor activity in HCT116 cell-transplanted mouse model. It is filed as in vivo, nude mice. Particulars: intraperitoneal, twice a week, 6 times in total; 5.5, 11 and 22 mg/kg; observed until 28th day; vs vehicle (DMSO). The method, then:
(§2) In vivo assessment In order to investigate the antitumor activity of 5′-position dibenzyl monophosphate derivatives of 5-azacytidine and its 2′-deoxy form, a HCT116 cell-transplanted mouse model derived from human colon cancer was used. After nurturing nude mice (female, 5 weeks old), 5×10^6 cells were transplanted subcutaneously into right flank. From the grouping date, samples in various concentrations (DMSO solution) were administered intraperitoneally for 6 times in total, at a frequency of twice a week. The observation was performed until the 28th day after grouping, during which body weight and tumor diameter were measured at a frequency of once a week.

Series [5] in a line: Body weight / safety in HCT116 cell-transplanted mouse model. It is filed as in vivo, nude mice. Conditions: intraperitoneal, twice a week, 6 times in total; 5.5, 11 and 22 mg/kg; observed until 28th day. As to the method: as §2

Take “O,O′-Di(4-chloro)benzyl 5-aza-2′-deoxycytidylate [Compound (E)]”: the “Cytotoxicity (cell count, WST-8 method)” value in series [1] was “low”. For the same substance, in series [2], the “Distribution coefficient log P” value is 2.44. In addition, the “Luciferase activity (DNMT inhibition)” value in series [3] is listed as “very strong luciferase activity”.
On to “O,O′-Di(4-fluoro)benzyl 5-aza-2′-deoxycytidylate [Compound (D)]”, for which, in series [4], the “Antitumor activity (tumor volume)” value is listed as “dose-dependent antitumor activity”. In addition, the “Safety / change in body weight” value in series [5] is listed as “highly safe”. In addition, the “Cytotoxicity (cell count, WST-8 method)” value in series [1] is recorded as “low”. For the same substance, in series [2], the “Distribution coefficient log P” value was determined as 1.40. The “Luciferase activity (DNMT inhibition)” value in series [3] is “very strong luciferase activity”.
As to “O,O′-Di(4-methyl)benzyl 5-aza-2′-deoxycytidylate [Compound (C)]”, in series [1], the “Cytotoxicity (cell count, WST-8 method)” value is on record as “low”. Besides, the “Luciferase activity (DNMT inhibition)” value in series [3] is reported as “very strong luciferase activity”.
Take “O,O′-Dibenzyl 5-aza-2′-deoxycytidylate [Compound (B)]”: the “Cytotoxicity (cell count, WST-8 method)” value in series [1] is “low”. Further, in series [2], the “Distribution coefficient log P” value is reported as 1.15. The “Luciferase activity (DNMT inhibition)” value in series [3] was “very strong luciferase activity”.
“O,O′-Dibenzyl 5-azacytidylate [Compound (A)]”: the “Distribution coefficient log P” value in series [2] is 0.83.

The values are drawn from US11173174B2, “DNMT inhibitor as solid tumor therapeutic drug” (OHARA PHARMACEUTICAL CO., LTD., priority 2017, dated 2021).
